Consider ten molecules from US4946858A, “Novel spirosuccinimides as aldose reductase inhibitors and antihyperglycemic agents” (American Home Products Corporation, priority 1989, dated 1990).

Each structure is given as a SMILES string. Where two headings read alike, the source gives them in different places.

One experiment addresses T1, aldose reductase (Bos taurus, UniProt P16116).
T1 construct: preparation of the enzyme from bovine lens; from tissue; host or cells: bovine lens
In words: In vitro inhibition of aldose reductase (modified Hayman and Kinoshita procedure, enzyme from bovine lens). Format: biochemical. The settings on record: read-out: % Inhibition in Vitro; for inhibition at 1 µM: 10^-6 M. The text has this: In the present case the procedure of Hayman and Kinoshita was modified in that the final chromatography step was omitted in the preparation of the enzyme from bovine lens.

In another experiment the test system is diabetic (db/db) mice. In words: Blood glucose lowering activity in diabetic (db/db) mice. Format: in vivo, mouse (db/db, C57BL/KsJ). The settings on record: for change in vivo at 100 mg/kg: Mus musculus, po, 96 h, 100 mg/kg/day p.o. (gavage), read-out: % Change from vehicle (plasma glucose). The text has this: The blood glucose lowering activity of the compounds of this invention were demonstrable in experiments using diabetic (db/db) mice. […] The animals are obese, glucose intolerant and have fasting hyperglycemia which is sometimes accompanied by a paradoxical hyperinsulinemia. Furthermore, the db/db mouse will eventually develop some of the long-term complications that have been associated with diabetes mellitus. [See Coleman Diabetes, 31 (Suppl. 1), 1 (1982)]. In spite of these commonalities, the acute administration of sulfonylureas (even at extremely high dosages) will not reduce the hyperglycemia of the db/db mouse. [See Tutwiler et al, Diabetes 27, 856 (1978)]. […] On the morning of Day 1, 35 mice [male db/db (C57BL/KsJ), Jackson Laboratories, 2 to 7 months of age and body weight 35 to 60 g] were fasted for 4 hours, weighted and a baseline blood sample was collected from the tail-tip of each mouse without anesthesia, placed directly into a fluoride-containing tube, mixed and maintained on ice. Food was then returned to the mice. The plasma was separated and levels of glucose in plasma determined by the Abbott VP Analyzer. Because of the variable plasma glucose levels of the db/db mice, 5 mice having the most extreme (i.e., highest or lowest) plasma glucose levels were excluded and the remaining 30 mice were randomly assigned into […] of equivalent means plasma glucose levels: On the afternoon of Days 1, 2 and 3 the vehicle, control or test drugs were administered (p.o.) to the ad libitum fed mice. […] The test compounds were given by gavage at a dose of 100 mg/kg/day unless otherwise noted in Table 3. On the morning of Day 4, the mice were weighted and fasted, but water was available ad libitum. Three hours later, a blood sample was collected and then the mice were given the fourth administration of drug or vehicle. Blood samples were collected again from the unanesthetized mice at 2 and 4 hours after drug administration. The plasma was separated and levels of glucose in plasma determined by the Abbott VP Analyzer. For each mouse, the percent change of it's plasma glucose level on Day 4 (mean of the 2 and 4 hour samples) from it's respective level before drug administration (Day 1 baseline sample) was determined as follows: [formula] Analysis of variance followed by Dunnett's multiple comparison (one-sided) was used to estimate the degree of statistical significance of the difference between the vehicle group and the individual drug-treated groups. A drug was considered active, at the specific dosage administered,if the difference of the plasma glucose level has a p<0.05.

The subject of experiment [1] is hyperglycemia and hyperinsulinemia. The settings on record: Fujita et al, Diabetes, 32, 804 (1983); cited from earlier work.
The next experiment has as its system galactosemic rats. In words: Lowering of galactitol (dulcitol) accumulation in tissues of galactosemic rats. Conditions: 4 days, vs untreated galactosemic rats. Format: in vivo, rat (Sprague-Dawley). The text has this:
The aldose reductase inhibiting property of the compounds of this invention and the utilization of the compounds in preventing, diminishing and alleviating diabetic complications by lowering polyol accumulation were also demonstrable in experiments using galactosemic rats, see Dvornik et al, Science, 182, 1146 (1973). Such experiments are exemplified hereinbelow after the listing of the following general comments pertaining to these experiments:
(a) Four or more groups of six male rats, 50-70 g, Sprague-Dawley strain, were used. The first group, the control group, was fed a mixture of laboratory chow (rodent Laboratory Chow, Purina) and glucose at 20% (w/w %) concentration. The untreated galactosemic group and the drug-treated groups were fed a similar diet in which galactose is substituted for glucose. The test compound was either admixed to the diet or administered by gavage. In experiments involving compound administration in the diet, the average dose administered was calculated from the actual food intake of the animals in each group. The concentration of galactose in the diet of the treated groups was the same as that for the untreated galactosemic groups.
(b) After four days, the amimals were killed by decapitation. The eyeballs were removed and punctured with a razor blade; the freed lenses were rolled gently on filter paper and weighed. The sciatic nerves were dissected as completely as possible and weighed. Both tissues when frozen can be kept up to two weeks before being analyzed for galactitol.
(c) The polyol determination was performed by a modification of the procedure of M. Kraml and L. Cosyns, Clin. Biochem., 2, 373 (1969). Only two minor reagent changes were made: (a) the rinsing mixture was an aqueous 5% (w/v) trichloroacetic acid solution and (b) the stock solution was prepared by dissolving 25 mg of dulcitol in 100 mL of an aqueous trichloroacetic acid solution. [N.B.: For each experiment the average value found in the tissue from rats fed the glucose diet was subtracted from the individual values found in the corresponding tissue in galactose-fed rats to obtain the amount of polyol accumulated.]
The figures under L, N, and D represent the percentage decrease of galactitol accumulation in the tissues of the lens, sciatic nerve, and diaphragm, respectively, for treated rats as compared to untreated rats.

The mark [2] stands for this setting: Day 4 mean of 2 and 4 hour samples vs Day 1 baseline, difference from vehicle.

As usually defined, the inhibition is how much of the control response was suppressed. On to `O=C1CC2(C(=O)N1)c1ccccc1C(=O)N2Cc1ccc(Cl)c(Cl)c1` (centres unmarked) [Example 115], for which, on aldose reductase (10^-5 M), the inhibition at 10 µM is 82%. In addition, the inhibition at 1 µM on aldose reductase worked out at 45%. Further, the change in vivo at 100 mg/kg in the experiment on diabetic (db/db) mice (setting [2]) is -21%.

With `CC(C)N1C2(CC(=O)NC2=O)c2ccccc2S1(=O)=O` (centres unmarked) [Example 111], the “% Change from vehicle (plasma glucose)” value in the experiment on diabetic (db/db) mice (87 mg/kg/day p.o. (gavage), Day 4 mean of 2 and 4 hour samples vs Day 1 baseline, difference from vehicle) was -27%.

In the case of `CC1(COc2ccc(CC3SC(=O)NC3=O)cc2)CCCCC1` (racemic) [Ciglitazone, (±)-5-[4-[(1-methylcyclohexyl)methoxy]benzyl]-thiazolidine-2,4-dione, reference compound], in experiment [1], the “effect on hyperglycemia and hyperinsulinemia” value is “normalizes these parameters”. Besides, in the experiment on diabetic (db/db) mice (setting [2]), the change in vivo at 100 mg/kg is -33%.

Regarding `CN1C(=O)c2cc(Cl)c(Cl)cc2C12CC(=O)NC2=O` (centres unmarked) [Example 122, 5,6-dichloro-2-methylspiro[1H-isoindole-1,3'-pyrrolidine]-2',3,5'(2H)-trione], at aldose reductase, the inhibition at 1 µM worked out at 83% and the inhibition at 10 µM came to 94%. For the same molecule, the change in vivo at 100 mg/kg in the experiment with diabetic (db/db) mice (setting [2]) is -31%. Further, in the experiment on galactosemic rats (3 mg/kg), the “% Lowering of dulcitol accumulation In Vivo, % D (diaphragm)” value (from here on “% Lowering … (diaphragm)”) is recorded as 25% and the “% Lowering of dulcitol accumulation In Vivo, % N (sciatic nerve)” value is 20%. Besides, in the experiment with galactosemic rats (50 mg/kg), the “% Lowering … (diaphragm)” value is 90%; the “% Lowering of dulcitol accumulation In Vivo, % L (lens)” value is given as 71%; the “% Lowering of dulcitol accumulation In Vivo, % N (sciatic nerve)” value was found to be 94%.

For the molecule `O=C1CC2(C(=O)N1)c1ccccc1C(=O)N2Cc1ccccc1` (centres unmarked) [Example 114], the change in vivo at 100 mg/kg in the experiment on diabetic (db/db) mice (setting [2]) was -22%.

For the molecule `O=C1CC2(C(=O)N1)c1ccccc1S(=O)(=O)N2Cc1ccc(Br)cc1` (centres unmarked) [Example 106, 2-[(4-bromophenyl)methyl]-2,3-dihydrospiro[1,2-benzisothiazole-3,3'-pyrrol-idine]-2',5'-dione 1,1-dioxide], the change in vivo at 100 mg/kg with diabetic (db/db) mice (setting [2]) is -37%.

On to `O=C1CC2(C(=O)N1)c1ccccc1S(=O)(=O)N2Cc1c(F)cccc1Cl` (centres unmarked) [Example 110], for which, in the experiment on diabetic (db/db) mice (setting [2]), the change in vivo at 100 mg/kg was -17%.

Take `O=C1CC2(C(=O)N1)c1ccccc1S(=O)(=O)N2Cc1ccc(Br)cc1F` (centres unmarked) [Example 104, 2-[(4-bromo-2-fluorophenyl)methyl]-2,3-dihydrospiro[1,2-benzisothiazole-3,3'-pyrrolidine]-2',5'-dione 1,1-dioxide]: the inhibition at 10 µM at aldose reductase (10^-5 M) came to 52%. Also, the inhibition at 1 µM on aldose reductase was 3%. The “comparison with ciglitazone, blood glucose lowering” value in the experiment on diabetic (db/db) mice (100 mg/kg, db/db mice) was “gives comparable results to ciglitazone at 100 mg/kg”. Moreover, the change in vivo at 100 mg/kg in the experiment on diabetic (db/db) mice (setting [2]) was -48%. For the same molecule, the “% Lowering of dulcitol accumulation In Vivo, % L (lens)” value in the experiment with galactosemic rats (104 mg/kg) is listed as 13%.

As to `O=C1CC2(C(=O)N1)c1ccccc1S(=O)(=O)N2Cc1ccc(Cl)c(Cl)c1` (centres unmarked) [Example 105], the inhibition at 10 µM on aldose reductase (10^-5 M) worked out at 63%. Further, at aldose reductase, the inhibition at 1 µM stood at 16%. Also, the change in vivo at 100 mg/kg in the experiment on diabetic (db/db) mice (setting [2]) was -27%.

As for `O=C1CC2(C(=O)N1)c1ccccc1C(=O)N2Cc1ccc(Br)cc1F` (centres unmarked) [Example 116, 2-[(4-bromo-2-fluorophenyl)methyl]spiro[1H-isoindole-1,3'pyrrolidine]-2',3,5'(2H)-trione], the inhibition at 10 µM at aldose reductase (10^-5 M) came out at 84%. The inhibition at 1 µM on aldose reductase came to 54%. Besides, the change in vivo at 100 mg/kg with diabetic (db/db) mice (setting [2]) is -36%. Further, the “% Lowering … (diaphragm)” value in the experiment on galactosemic rats (101 mg/kg) stood at 30%.
